The NIST ThermoML archive (doi:10.1021/je201009c)
± gives the expanded uncertainty stated by the source.

Assay: refractive index (Na D-line) (dimensionless); xn = mol fraction of the nth substance listed
Conditions: Liquid, Standard Abbe refractometry

OCc1ccccc1 [benzenemethanol] + CCO
refractive index, 100.8 kPa
Conditions	293.15 K	303.15 K	313.15 K	323.15 K
x2 = 0	1.54049 ± 0.001	1.53635 ± 0.001	1.53215 ± 0.001	1.52796 ± 0.001
x2 = 0.05	1.53607 ± 0.001	1.53175 ± 0.001	1.52743 ± 0.001	1.52308 ± 0.001
x2 = 0.1	1.53119 ± 0.001	1.52681 ± 0.001	1.5225 ± 0.001	1.51807 ± 0.001
x2 = 0.1504	1.52584 ± 0.001	1.5215 ± 0.001	1.51718 ± 0.001	1.51273 ± 0.001
x2 = 0.1999	1.52041 ± 0.001	1.51591 ± 0.001	1.51156 ± 0.001	1.50721 ± 0.001
x2 = 0.2502	1.51444 ± 0.001	1.51002 ± 0.001	1.5056 ± 0.001	1.50123 ± 0.001
x2 = 0.3003	1.50804 ± 0.001	1.50367 ± 0.001	1.49935 ± 0.001	1.49494 ± 0.001
x2 = 0.3499	1.50154 ± 0.001	1.49716 ± 0.001	1.49265 ± 0.001	1.48825 ± 0.001
x2 = 0.3998	1.49454 ± 0.001	1.49014 ± 0.001	1.48568 ± 0.001	1.48127 ± 0.001
x2 = 0.45	1.48707 ± 0.001	1.4826 ± 0.001	1.47818 ± 0.001	1.47378 ± 0.001
x2 = 0.5001	1.4791 ± 0.001	1.47469 ± 0.001	1.4703 ± 0.001	1.46589 ± 0.001
x2 = 0.55	1.47074 ± 0.001	1.46632 ± 0.001	1.46191 ± 0.001	1.45755 ± 0.001
x2 = 0.5999	1.46176 ± 0.001	1.45731 ± 0.001	1.45296 ± 0.001	1.44855 ± 0.001
x2 = 0.65	1.4522 ± 0.001	1.4477 ± 0.001	1.44333 ± 0.001	1.43892 ± 0.001
x2 = 0.6997	1.44199 ± 0.001	1.43754 ± 0.001	1.43309 ± 0.001	1.4287 ± 0.001
x2 = 0.75	1.43095 ± 0.001	1.42651 ± 0.001	1.42212 ± 0.001	1.41775 ± 0.001
x2 = 0.7999	1.41922 ± 0.001	1.41479 ± 0.001	1.4104 ± 0.001	1.40607 ± 0.001
x2 = 0.8496	1.40661 ± 0.001	1.40202 ± 0.001	1.39761 ± 0.001	1.39329 ± 0.001
x2 = 0.8998	1.39275 ± 0.001	1.38825 ± 0.001	1.38389 ± 0.001	1.37963 ± 0.001
x2 = 0.95	1.37776 ± 0.001	1.37331 ± 0.001	1.36905 ± 0.001	1.36475 ± 0.001

CC(=O)OCc1ccccc1 [benzyl ethanoate] + CCO
refractive index, 100.8 kPa
Conditions	293.15 K	303.15 K	313.15 K	323.15 K
x2 = 0	1.50245 ± 0.0011	1.49776 ± 0.0011	1.49309 ± 0.0011	1.48834 ± 0.0011
x2 = 0.0502	1.49958 ± 0.0011	1.49479 ± 0.0011	1.49006 ± 0.0011	1.48521 ± 0.0011
x2 = 0.1	1.49646 ± 0.0011	1.49168 ± 0.0011	1.48693 ± 0.0011	1.48205 ± 0.0011
x2 = 0.1498	1.49316 ± 0.001	1.48838 ± 0.001	1.48362 ± 0.001	1.47874 ± 0.001
x2 = 0.1998	1.48968 ± 0.001	1.48491 ± 0.001	1.48007 ± 0.001	1.47517 ± 0.001
x2 = 0.2499	1.48589 ± 0.001	1.48118 ± 0.001	1.47629 ± 0.001	1.47143 ± 0.001
x2 = 0.2998	1.4819 ± 0.001	1.47715 ± 0.001	1.47228 ± 0.001	1.46739 ± 0.001
x2 = 0.35	1.4776 ± 0.001	1.47284 ± 0.001	1.46794 ± 0.001	1.46309 ± 0.001
x2 = 0.4	1.47289 ± 0.001	1.46818 ± 0.001	1.46327 ± 0.001	1.45847 ± 0.001
x2 = 0.4501	1.46787 ± 0.001	1.46316 ± 0.001	1.45826 ± 0.001	1.45346 ± 0.001
x2 = 0.5	1.46245 ± 0.001	1.45772 ± 0.001	1.45286 ± 0.001	1.44807 ± 0.001
x2 = 0.5499	1.45652 ± 0.001	1.45179 ± 0.001	1.44703 ± 0.001	1.44215 ± 0.001
x2 = 0.6	1.44996 ± 0.001	1.44531 ± 0.001	1.44052 ± 0.001	1.43561 ± 0.001
x2 = 0.65	1.44279 ± 0.001	1.43815 ± 0.001	1.43339 ± 0.001	1.42851 ± 0.001
x2 = 0.7	1.43481 ± 0.001	1.43018 ± 0.001	1.42552 ± 0.001	1.42067 ± 0.001
x2 = 0.7499	1.42603 ± 0.001	1.42142 ± 0.001	1.41682 ± 0.001	1.41198 ± 0.001
x2 = 0.7999	1.41623 ± 0.001	1.41163 ± 0.001	1.40711 ± 0.001	1.40231 ± 0.001
x2 = 0.85	1.40518 ± 0.001	1.40062 ± 0.001	1.39617 ± 0.001	1.39132 ± 0.001
x2 = 0.9	1.39263 ± 0.001	1.38811 ± 0.001	1.38375 ± 0.001	1.37895 ± 0.001
x2 = 0.95	1.3782 ± 0.001	1.37384 ± 0.001	1.36951 ± 0.001	1.36489 ± 0.001

CC(=O)OCc1ccccc1 [benzyl ethanoate] + OCc1ccccc1
refractive index, 101 kPa
Conditions	293.15 K	303.15 K	313.15 K	323.15 K
x1 = 0.05	1.53821 ± 0.00033	1.5339 ± 0.00033	1.52962 ± 0.00033	1.52532 ± 0.00033
x1 = 0.1001	1.53584 ± 0.00033	1.53143 ± 0.00033	1.52715 ± 0.00033	1.52278 ± 0.00033
x1 = 0.1502	1.53352 ± 0.00033	1.52903 ± 0.00033	1.52471 ± 0.00033	1.5203 ± 0.00033
x1 = 0.2001	1.53127 ± 0.00033	1.52673 ± 0.00033	1.52235 ± 0.00033	1.51791 ± 0.00033
x1 = 0.25	1.52907 ± 0.00034	1.52449 ± 0.00034	1.52007 ± 0.00034	1.5156 ± 0.00034
x1 = 0.3	1.52689 ± 0.00034	1.52231 ± 0.00034	1.51785 ± 0.00034	1.51335 ± 0.00034
x1 = 0.3498	1.5248 ± 0.00034	1.52022 ± 0.00034	1.51571 ± 0.00034	1.51118 ± 0.00034
x1 = 0.4001	1.52279 ± 0.00034	1.51819 ± 0.00034	1.51362 ± 0.00034	1.50908 ± 0.00034
x1 = 0.45	1.52083 ± 0.00034	1.51621 ± 0.00034	1.5116 ± 0.00034	1.50704 ± 0.00034
x1 = 0.5	1.51893 ± 0.00035	1.51428 ± 0.00035	1.50964 ± 0.00035	1.50506 ± 0.00035
x1 = 0.5501	1.5171 ± 0.00035	1.51239 ± 0.00035	1.50774 ± 0.00035	1.50314 ± 0.00035
x1 = 0.6001	1.5153 ± 0.00035	1.51057 ± 0.00035	1.5059 ± 0.00035	1.50128 ± 0.00035
x1 = 0.65	1.51352 ± 0.00035	1.50881 ± 0.00035	1.5041 ± 0.00035	1.49946 ± 0.00035
x1 = 0.6999	1.51182 ± 0.00035	1.50711 ± 0.00035	1.50237 ± 0.00035	1.49771 ± 0.00035
x1 = 0.7502	1.51014 ± 0.00036	1.50545 ± 0.00036	1.5007 ± 0.00036	1.49598 ± 0.00036
x1 = 0.8	1.50852 ± 0.00036	1.50383 ± 0.00036	1.49906 ± 0.00036	1.49434 ± 0.00036
x1 = 0.85	1.50696 ± 0.00036	1.50227 ± 0.00036	1.49748 ± 0.00036	1.49276 ± 0.00036
x1 = 0.9	1.50544 ± 0.00036	1.50075 ± 0.00036	1.49596 ± 0.00036	1.49124 ± 0.00036
x1 = 0.95	1.50396 ± 0.00037	1.49926 ± 0.00037	1.4945 ± 0.00037	1.48976 ± 0.00037
x1 = 1	1.50245 ± 0.00037	1.49776 ± 0.00037	1.49309 ± 0.00037	1.48834 ± 0.00037
